Results: DBAASP
≈ marks a conversion by molar mass, not a printed value. Where “and” joins values, the source holds several entries; their conditions need not be identical. Equal entries are not always repeated. One block for each compound: values may come before it.

Columns and labels:
Experiment in all cases: ≥ marks a high value that may be exact or a test limit, other limits are often not marked, values filed in µg/mL are converted to µM
[1] = tested on: Escherichia coli ATCC 25922
[2] = tested on: Escherichia coli HB101
[3] = tested on: Escherichia coli JW0013
[4] = tested on: Escherichia coli MC1041
[5] = tested on: Escherichia coli JJ2489
[6] = tested on: Salmonella typhimurium SL1344
[7] = tested on: Escherichia coli JW0368 ΔsbmA
[8] = tested on: Salmonella enterica subsp. enterica serovar Newport
[9] = tested on: Escherichia coli J2210
[10] = tested on: Salmonella enterica serovar Tennessee
[11] = tested on: Salmonella enterica subsp. enterica serovar Infantis
[12] = tested on: Salmonella enterica subsp. enterica serovar Enteritidis MH91989
[13] = tested on: Escherichia coli
[14] = tested on: Escherichia coli JW2778 ΔygdD
[15] = tested on: Staphylococcus epidermidis KCTC 1917
[16] = tested on: Staphylococcus aureus NCTC 12981
[17] = tested on: Staphylococcus aureus USA 100
[18] = tested on: Staphylococcus aureus KCTC 1621
[19] = tested on: Pseudomonas aeruginosa KCTC 1637
[20] = tested on: Escherichia coli KCTC 1682
[21] = tested on: Escherichia coli NCTC 10418
[22] = tested on: Pseudomonas aeruginosa NCDC 0105
[23] = tested on: Klebsiella pneumoniae ATCC 700603
[24] = tested on: Staphylococcus aureus ATCC 29213
[25] = tested on: Salmonella enterica subsp. enterica serovar Typhimurium ATCC 14028
[26] = tested on: Pseudomonas aeruginosa ATCC 27853
[27] = tested on: Escherichia coli D31
[28] = tested on: Bacillus subtilis ATCC 6051
[29] = tested on: Pseudomonas aeruginosa PAO1
[30] = tested on: Staphylococcus aureus NCDC 0111
[31] = tested on: Escherichia coli MTCC 0723
[32] = tested on: Staphylococcus aureus ATCC 35556
[33] = tested on: Acinetobacter baumannii ATCC 19606
[34] = tested on: Acinetobacter johnsonii NCDC 0072
[35] = tested on: Bacillus cereus NCDC 0240
[36] = tested on: Listeria monocytogenes ATCC 19111
[37] = tested on: Salmonella enterica subsp. enterica serovar Typhimurium ATCC 700931
[38] = tested on: Shigella dysenteriae
[39] = tested on: Candida albicans ATCC 2002
[40] = tested on: Candida parapsilosis ATCC 22019
[41] = tested on: Escherichia coli IS218#
[42] = tested on: Escherichia coli IS37#
[43] = tested on: Enterococcus faecalis ATCC 29212
[44] = tested on: Pseudomonas aeruginosa IS350#
[45] = tested on: Candida albicans NCYC 1467
[46] = tested on: Escherichia coli IS117#
[47] = tested on: Klebsiella pneumoniae IS59#
[48] = tested on: Candida albicans ATCC 90028
[49] = tested on: Staphylococcus aureus ATCC 25923
[50] = tested on: Staphylococcus aureus IS10#
[51] = tested on: Pseudomonas aeruginosa CMCCB 1010
[52] = tested on: Staphylococcus aureus NCTC 10788
[53] = tested on: Enterobacter cloacae ATCC 13047
[54] = tested on: Staphylococcus aureus IS37#

SMILES: CC[C@H](C)[C@H](NC(=O)[C@H](Cc1c[nH]c2ccccc12)NC(=O)[C@@H](NC(=O)[C@H](Cc1c[nH]c2ccccc12)NC(=O)[C@@H]1CCCN1C(=O)[C@@H](NC(=O)[C@H](C)N)[C@@H](C)CC)[C@@H](C)CC)C(=O)N[C@@H](Cc1c[nH]c2ccccc12)C(=O)N[C@@H](CCCN=C(N)N)C(=O)N[C@@H](CC(C)C)C(=O)N[C@@H](CC(C)C)C(=O)N[C@@H](CCCN=C(N)N)C(=O)N[C@@H](CCCCN)C(=O)NCC(=O)O [AIPWIWIWRLLRKG]
MIC [22]: 3 µM (≈ 5.42 µg/mL)
MIC [23]: > 15 µM
MIC [24]: 0.4 µM (≈ 0.723 µg/mL)
MIC [25]: 6 µM (≈ 10.8 µg/mL)
MIC [26]: 0.4 µM (≈ 0.723 µg/mL)
MIC [27]: 7.5 µM (≈ 13.6 µg/mL)
MIC [28]: 0.23 µM (≈ 0.416 µg/mL)
MIC [29]: 15 µM (≈ 27.1 µg/mL)
MIC [30]: 0.4 µM (≈ 0.723 µg/mL)
MIC [31]: 6 µM (≈ 10.8 µg/mL)
MIC [32]: 3.75 µM (≈ 6.78 µg/mL)
MIC [33]: 3.75 µM (≈ 6.78 µg/mL)
MIC [34]: 12.5 µM (≈ 22.6 µg/mL)
MIC [35]: 12.5 µM (≈ 22.6 µg/mL)
MIC [36]: 12.5 µM (≈ 22.6 µg/mL)
MIC [37]: 15 µM (≈ 27.1 µg/mL)

SMILES: CC[C@H](C)[C@H](NC(=O)CNC(=O)[C@H](CO)NC(=O)[C@H](CC(C)C)NC(=O)[C@H](CC(C)C)NC(=O)CN)C(=O)N[C@@H](CC(C)C)C(=O)NCC(=O)N[C@@H](C)C(=O)NCC(=O)N[C@@H](CCCCN)C(=O)N[C@@H](CCCCN)C(=O)N[C@H](C(=O)N[C@H](C(=O)N[C@H]1CSSC[C@@H](C(=O)O)NC(=O)[C@H](CC(C)C)NC(=O)CNC(=O)[C@H](CO)NC(=O)[C@H](CC(C)C)NC(=O)CNC1=O)C(C)C)[C@@H](C)CC [GLLSGILGAGKKIVCGLSGLC]
MIC [38]: 2.55 µM (≈ 4.99 µg/mL)
MIC [1]: 5.1 µM (≈ 9.99 µg/mL)
MIC [23]: 1.28 µM (≈ 2.5 µg/mL)
MIC [39]: 0.51 µM (≈ 0.999 µg/mL)
MIC [40]: 1.28 µM (≈ 2.5 µg/mL)
MIC [41]: 2.55 µM (≈ 4.99 µg/mL)
MIC [42]: 2.55 µM (≈ 4.99 µg/mL)
MIC [26]: 2.55 µM (≈ 4.99 µg/mL)
MIC [43]: 5.1 µM (≈ 9.99 µg/mL)
MIC [44]: 5.1 µM (≈ 9.99 µg/mL)
MIC [45]: 32 µM (≈ 62.6 µg/mL)
MIC [46]: 5.1 µM (≈ 9.99 µg/mL)
MIC [47]: 5.1 µM (≈ 9.99 µg/mL)
MIC [48]: 2.55 µM (≈ 4.99 µg/mL)
MIC [21]: ≥ 64 µM
MIC [49]: 2.55 µM (≈ 4.99 µg/mL)
MIC [50]: 10.2 µM (≈ 20 µg/mL)
MIC [51]: 1.28 µM (≈ 2.5 µg/mL)
MIC [52]: 32 µM (≈ 62.6 µg/mL)
MIC [53]: 5.1 µM (≈ 9.99 µg/mL)
MIC [54]: 10.2 µM (≈ 20 µg/mL)

Next, values leading:

MIC [1]: 11.3 µM (≈ 22.9 µg/mL)
MIC [2]: 11.3 µM (≈ 22.9 µg/mL)
SMILES: CC[C@H](C)[C@H](NC(=O)[C@H](CCCN=C(N)N)NC(=O)[C@@H](N)CCCN=C(N)N)C(=O)N[C@@H](CCCN=C(N)N)C(=O)N1CCC[C@H]1C(=O)N[C@@H](CCCN=C(N)N)C(=O)N1CCC[C@H]1C(=O)N1CCC[C@H]1C(=O)N[C@@H](CCCN=C(N)N)C(=O)N[C@@H](CC(C)C)C(=O)N1CCC[C@H]1C(=O)N[C@@H](CCCN=C(N)N)C(=O)N1CCC[C@H]1C(=O)N[C@@H](CCCN=C(N)N)C(=O)N1CCC[C@H]1C(=O)N[C@@H](CS)C(=O)O [RRIRPRPPRLPRPRPC]

MIC [3]: 0.15 µM (≈ 0.351 µg/mL)
MIC [4]: 0.416 µM (≈ 0.974 µg/mL)
MIC [5]: 0.6 µM (≈ 1.4 µg/mL)
MIC [6]: 1.2 µM (≈ 2.81 µg/mL)
MIC [7]: 2.4 µM (≈ 5.62 µg/mL)
MIC [8]: 0.416 µM (≈ 0.974 µg/mL)
MIC [9]: 0.786 µM (≈ 1.84 µg/mL)
MIC [10]: 0.6 µM (≈ 1.4 µg/mL)
MIC [11]: 0.6 µM (≈ 1.4 µg/mL)
MIC [12]: 1.2 µM (≈ 2.81 µg/mL)
MIC [13]: > 0.416 µM and 0.6 µM
MIC [14]: 0.6 µM (≈ 1.4 µg/mL)
SMILES: CC[C@H](C)[C@H](NC(=O)[C@@H]1CCCN1C(=O)[C@H](CCCN=C(N)N)NC(=O)[C@@H]1CCCN1C(=O)[C@@H]1CCCN1C(=O)[C@@H](NC(=O)[C@@H]1CCCN1C(=O)[C@H](CCCN=C(N)N)NC(=O)[C@@H]1CCCN1C(=O)[C@H](CC(C)C)NC(=O)[C@H](Cc1ccc(O)cc1)NC(=O)[C@H](CO)NC(=O)CNC(=O)[C@H](CCCCN)NC(=O)[C@H](CC(=O)O)NC(=O)[C@@H](N)C(C)C)[C@@H](C)O)C(=O)N[C@@H](Cc1ccc(O)cc1)C(=O)N[C@@H](CC(N)=O)C(=O)N[C@@H](CCCN=C(N)N)C(=O)N[C@@H](CC(N)=O)C(=O)O [VDKGSYLPRPTPPRPIYNRN]

MIC [15]: 11.4 µM (≈ 7.99 µg/mL)
MIC [16]: ≥ 182 µM
MIC [17]: ≥ 50 µM
MIC [18]: ≥ 45.5 µM
MIC [19]: ≥ 45.5 µM
MIC [20]: ≥ 45.5 µM
MIC [21]: ≥ 182 µM
SMILES: NC(=O)[C@H](CCCN=C(N)N)NC(=O)[C@H](Cc1c[nH]c2ccccc12)NC(=O)[C@H](CCCN=C(N)N)NC(=O)[C@@H](N)Cc1c[nH]c2ccccc12 [WRWR]
